≈ marks a conversion by molar mass, not a printed value. Where two headings read alike, the source gives them in different places.
System: Treponema hyodysenteriae
Assay: Minimum inhibiting concentration against Treponema hyodysenteriae, agar diffusion test with dilution series
Format: cell-based
Conditions: Brachyspira hyodysenteriae, read-out: Minimum inhibiting concentration (MIC)
Experimental: In order to detect the surprising effect on Treponema hyodysenteriae, this microorganism was cultivated according to the method of Harris on a trypticase-soy-agar using an addition of horse blood of 5% in a CO2 /H2 atmosphere, and the minimum inhibiting concentration of Salinomycin was determined in the agar diffusion test, while using the corresponding dilution series, as compared against commercial preparations showing a particularly good effect in dysentery diseases.

[1] = trypticase-soy-agar with 5% horse blood, CO2/H2 atmosphere

Row | MIC [1] [µg/mL] | SMILES | MIC [µg/mL]
1 |  | C[n+]1c2cc(N)ccc2cc2ccc(N)cc21.[Cl-] [3,6-Diamino-10-methyl-acridinium chloride] | 100
2 | 5 (≈ 35.4 µM) | Cc1ncc([N+](=O)[O-])n1C [Dimethridazol] | 
3 |  | CC[C@H]1OC(=O)[C@H](C)[C@@H](O[C@H]2C[C@@](C)(OC)[C@@H](O)[C@H](C)O2)[C@H](C)[C@@H](O[C@@H]2O[C@H](C)C[C@H](N(C)C)[C@H]2O)[C@](C)(O)C[C@@H](C)C(=O)[C@H](C)[C@@H](O)[C@]1(C)O [Erythromycin] | > 100
4 | 100 | CCOc1ccc2nc3cc(N)ccc3c(N)c2c1 [Ethacridine lactate] | 
